In ChEMBL document CHEMBL3997835, “Isoquinoline alkaloids from Coptis japonica stimulate the myoblast differentiation via p38 MAP-kinase and Akt signaling pathway” (Bioorg Med Chem Lett, 2017):
Calls of active or inactive are those of the source. The calls are words filed in the database; no cut-off is given here.

Experiments:
C2C12 [1] = assay: Cytotoxicity against mouse C2C12 cells at 10 nM up to 24 hrs; type: cell-based; details: c2c12, 24 h, 0.01 µM
C2C12 [2] = assay: Induction of myoblast differentiation in mouse C2C12 cells expressing MyoD-responsive 4RTK-Luc assessed as increase in MHC protein expression at 10 nM after 2 days by Western blot analysis; type: functional, cell-based
C2C12 [3] = assay: Induction of MyoD transcriptional activity in mouse C2C12 cells expressing MyoD-responsive 4RTK-Luc at 10 nM after 24 hrs by luciferase reporter gene assay; type: functional, cell-based
C2C12 [4] = assay: Induction of myoblast differentiation in mouse C2C12 cells assessed as increase in MHC protein expression after 2 days by Western blot analysis; type: functional, cell-based
[5] = target: MAP kinase p38 (Mus musculus) (UniProt P47811+O08911+Q9WUI1+Q9Z1B7); assay: Induction of p38 MAPK phosphorylation in mouse C2C12 cells at 0.1 nM after 2 days by Western blot analysis relative to control; type: cell-based
C2C12 [6] = assay: Induction of myoblast differentiation in mouse C2C12 cells assessed as increase in MHC expression after 2 days by DAPI staining based immunofluorescence assay; type: functional, cell-based
C2C12 [7] = assay: Induction of myoblast differentiation in mouse C2C12 cells assessed as cylinder shaped multinucleated myotubes after 2 days by DAPI staining based immunofluorescence assay; type: functional, cell-based
[8] = target: RAC-alpha serine/threonine-protein kinase (Mus musculus) (UniProt P31750); assay: Induction of Akt phosphorylation in mouse C2C12 cells up to 10 nM after 2 days by Western blot analysis; type: cell-based
C2C12 [9] = assay: Induction of myoblast differentiation in mouse C2C12 cells assessed as increase in MyoD protein expression after 2 days by Western blot analysis; type: functional, cell-based

Chain of RAC-alpha serine/threonine-protein kinase (Mus musculus) (P31750 whole entry): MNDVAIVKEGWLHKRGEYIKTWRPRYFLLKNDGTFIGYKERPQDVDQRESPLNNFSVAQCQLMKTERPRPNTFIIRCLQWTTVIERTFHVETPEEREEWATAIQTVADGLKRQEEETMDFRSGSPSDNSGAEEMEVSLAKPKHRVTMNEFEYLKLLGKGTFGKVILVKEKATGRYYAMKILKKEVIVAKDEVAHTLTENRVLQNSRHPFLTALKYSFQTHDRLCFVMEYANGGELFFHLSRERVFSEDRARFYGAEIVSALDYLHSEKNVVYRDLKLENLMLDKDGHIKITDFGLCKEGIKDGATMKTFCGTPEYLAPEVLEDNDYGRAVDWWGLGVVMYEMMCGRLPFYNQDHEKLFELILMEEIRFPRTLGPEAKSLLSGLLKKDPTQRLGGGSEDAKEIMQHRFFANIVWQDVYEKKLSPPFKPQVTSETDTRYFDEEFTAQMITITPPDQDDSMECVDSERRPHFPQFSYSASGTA

| fold change (FC) [5] | Activity [8] | SMILES | Activity (C2C12 [1]) | Activity (C2C12 [2]) | Activity (C2C12 [3]) | Activity (C2C12 [4]) | Activity (C2C12 [6]) | Activity (C2C12 [7]) | Activity (C2C12 [9]) |
| --- | --- | --- | --- | --- | --- | --- | --- | --- | --- |
| – | – | COc1cc2c(cc1OC)-c1cc3ccc4c(c3c[n+]1CC2)OCO4 | Non-Toxic | Active | Active | – | – | – | – |
| – | – | OC1c2c(ccc3c2OCO3)C=C2c3cc4c(cc3CCN21)OCO4 (centres undefined) | Non-Toxic | Active | Active | – | – | – | – |
| – | – | COc1ccc2cc3[n+](cc2c1OC)CCc1cc2c(cc1-3)OCO2 [BERBERINE] | Non-Toxic | Active | Active | – | – | – | – |
| – | – | COc1cc2c(cc1O)CC[n+]1cc3c(OC)c(OC)ccc3cc1-2 [JATRORRHIZINE] | Non-Toxic | Active | Active | – | – | – | – |
| 6 | Active | COc1ccc2c(c1O)-c1c(O)c(OC)cc3c1[C@H](C2)[N+](C)(C)CC3 [MAGNOFLORINE] | Non-Toxic | Active | Active | Dose-dependent effect | Dose-dependent effect | Dose-dependent effect | Dose-dependent effect |
| – | – | COc1cc2c(cc1OC)-c1cc3ccc(OC)c(OC)c3c[n+]1CC2 [PALMITINE] | Non-Toxic | Active | Active | – | – | – | – |
